Values joined by “and” are separate entries in the source; they are usually repeats but may differ in a detail not shown here. Equal values may be shown once. Inconclusive results and toxic doses are left out. Rule as the data show it: active = T/C of 150% or more; inactive = T/C below 125%.
Tested on: L1210 leukemia ip in BDF1 mice, survival T/C
Test: NCI In Vivo Anticancer Drug Screen. Data for tumor model L1210 Leukemia (intraperitoneal) in B6D2F1 (BDF1) mice
Conditions: endpoint: mean survival time, higher = longer survival
Outline: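 Read-out is survival time, reported as the treated-group measurement over the vehicle-control measurement.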

[1] = dose: 100.0 mg/kg/injection, schedule: Q01DX001 (ip), vehicle: saline
[2] = dose: 50.0 mg/kg/injection, schedule: Q01DX001 (ip), vehicle: carboxymethylcellulose (CMC)
[3] = dose: 100.0 mg/kg/injection, schedule: Q01DX001 (ip), vehicle: carboxymethylcellulose (CMC)
[4] = dose: 200.0 mg/kg/injection, schedule: Q01DX001 (ip), vehicle: carboxymethylcellulose (CMC)
[5] = dose: 400.0 mg/kg/injection, schedule: Q01DX001 (ip), vehicle: carboxymethylcellulose (CMC)
[6] = dose: 100.0 mg/kg/injection, schedule: Q01DX009 (ip), vehicle: Klucel (hydroxypropylcellulose) (HPC)
[7] = dose: 100.0 mg/kg/injection, schedule: Q04DX003 (ip), vehicle: Klucel (hydroxypropylcellulose) (HPC)
[8] = dose: 200.0 mg/kg/injection, schedule: Q04DX003 (ip), vehicle: Klucel (hydroxypropylcellulose) (HPC)
[9] = dose: 400.0 mg/kg/injection, schedule: Q04DX003 (ip), vehicle: Klucel (hydroxypropylcellulose) (HPC)
[10] = dose: 200.0 mg/kg/injection, schedule: Q01DX001 (ip), vehicle: saline
[11] = dose: 200.0 mg/kg/injection, schedule: Q01DX009 (ip), vehicle: saline
[12] = dose: 400.0 mg/kg/injection, schedule: Q01DX001 (ip), vehicle: saline
[13] = dose: 100.0 mg/kg/injection, schedule: Q04DX003 (ip), vehicle: saline with Tween-80
[14] = dose: 200.0 mg/kg/injection, schedule: Q04DX003 (ip), vehicle: saline with Tween-80
[15] = dose: 100.0 mg/kg/injection, schedule: Q04DX003 (ip), vehicle: saline
[16] = dose: 200.0 mg/kg/injection, schedule: Q04DX003 (ip), vehicle: saline
[17] = dose: 50.0 mg/kg/injection, schedule: Q01DX009 (ip), vehicle: saline
[18] = dose: 100.0 mg/kg/injection, schedule: Q01DX009 (ip), vehicle: saline

Measured: T/C

OCC(O)C(O)C(O)C(Sc1ccccc1)Sc1ccccc1 (stereo unspecified)
inactive: dose: 75.0 mg/kg/injection, schedule: Q01DX001 (ip), vehicle: saline 97 % of control | dose: 100.0 mg/kg/injection, schedule: Q01DX001 (ip), vehicle: other 95 % of control | dose: 150.0 mg/kg/injection, schedule: Q01DX001 (ip), vehicle: saline 102 % of control | dose: 200.0 mg/kg/injection, schedule: Q01DX001 (ip), vehicle: other 101 % of control | dose: 300.0 mg/kg/injection, schedule: Q01DX001 (ip), vehicle: saline 102 % of control | dose: 400.0 mg/kg/injection, schedule: Q01DX001 (ip), vehicle: other 97 % of control

CC1(C(Cl)Cl)CCCCC1=O (stereo unspecified)
inactive: dose: 5.0 mg/kg/injection, schedule: Q01DX001 (ip), vehicle: saline 95 % of control | dose: 10.0 mg/kg/injection, schedule: Q01DX001 (ip), vehicle: saline 96 % of control | dose: 20.0 mg/kg/injection, schedule: Q01DX001 (ip), vehicle: saline 109 % of control | dose: 40.0 mg/kg/injection, schedule: Q01DX001 (ip), vehicle: saline 100 % of control | dose: 80.0 mg/kg/injection, schedule: Q01DX001 (ip), vehicle: saline 97 % of control | [1] 104 % of control

CC1CCN(C(=O)CCCCl)CC1
inactive: dose: 100.0 mg/kg/injection, schedule: Q04DX002 (ip), vehicle: saline 104 % of control | dose: 200.0 mg/kg/injection, schedule: Q04DX002 (ip), vehicle: saline 114 % of control

CCOC(=O)CN(C)c1ccccc1
inactive: [2] 104 % of control | [3] 107 % of control | [4] 93 % of control | [5] 107 % of control

CCc1c(N)nc(N)nc1Nc1ccc(Cl)c(Cl)c1
inactive: dose: 100.0 mg/kg/injection, schedule: Q01DX Z (ip), vehicle: methylcellulose (MC) 96 % of control

CC1CCCN(C)C1 (stereo unspecified)
inactive: [6] 100 % of control | [7] 100 % of control | [8] 100 % of control | [9] 93 % of control

Cc1cc(=O)c2cccc(C)c2[nH]1
inactive: [6] 95 % of control | [7] 95 % of control | dose: 200.0 mg/kg/injection, schedule: Q01DX009 (ip), vehicle: Klucel (hydroxypropylcellulose) (HPC) 90 % of control | [8] 98 % of control | [9] 98 % of control

Cc1ccc(S(=O)(=O)N/N=C2/C3CC4C(C3)C24)cc1
inactive: [1] 90 % of control | [10] 88 % of control | [11] 92 % of control | [12] 103 % of control

OCCN1C(c2ccccc2)C1c1ccccc1 (stereo unspecified)
inactive: [13] 102 % of control | [14] 93 % of control | dose: 400.0 mg/kg/injection, schedule: Q04DX003 (ip), vehicle: saline with Tween-80 97 % of control

O=C(C(=O)c1ccc(O)cc1)c1ccccc1
inactive: [3] 103 % of control | [4] 97 % of control | [5] 97 % of control

CCC(C#N)N1CC1 (stereo unspecified)
inactive: dose: 15.0 mg/kg/injection, schedule: Q01DX001 (ip), vehicle: saline 94 % of control | dose: 30.0 mg/kg/injection, schedule: Q01DX001 (ip), vehicle: saline 104 % of control

CC(C)CCOc1ccc(C(N)=S)c2ccccc12
inactive: dose: 100.0 mg/kg/injection, schedule: Q01DX001 (ip), vehicle: Klucel (hydroxypropylcellulose) (HPC) 112 % of control | dose: 200.0 mg/kg/injection, schedule: Q01DX001 (ip), vehicle: Klucel (hydroxypropylcellulose) (HPC) 112 % of control | dose: 400.0 mg/kg/injection, schedule: Q01DX001 (ip), vehicle: Klucel (hydroxypropylcellulose) (HPC) 102 % of control

CCSc1nc(C)cc(Cl)n1
inactive: [13] 100 % of control | [14] 93 % of control

O=C(/C=C1\C(=O)Nc2ccccc21)/C=C1/C(=O)Nc2ccccc21
inactive: [6] 93 % of control

Cc1cc(NS(=O)(=O)c2ccc(N=Nc3c(N)nc(N)[nH]c3=O)cc2)nc(C)n1
inactive: [1] 97 % of control | [10] 89 % of control | [12] 92 % of control

Nn1c(=S)[nH][nH]c1=S
inactive: [15] 97 % of control | [16] 103 % of control | dose: 400.0 mg/kg/injection, schedule: Q04DX003 (ip), vehicle: saline 98 % of control

CCCCCCCCCCCCCCCCCC1=NC(C)(CO)CO1 (stereo unspecified)
inactive: [7] 102 % of control | [8] 96 % of control | [9] 107 % of control

COC(=O)C(C)(N)Cc1ccc(O)cc1 (stereo unspecified)
inactive: [17] 102 % of control | [18] 97 % of control | [15] 96 % of control | [11] 105 % of control | [16] 93 % of control

Sc1cccc2c(S)cccc12
inactive: [2] 100 % of control | [3] 97 % of control | [4] 103 % of control | [5] 100 % of control

C=CCc1ccc2c(C)cc[n+](C)c2c1O
inactive: [1] 91 % of control | [10] 93 % of control

CC1CCC(C)OCO1 (stereo unspecified)
inactive: dose: 50.0 mg/kg/injection, schedule: Q01DX009 (ip), vehicle: acetone 97 % of control | dose: 100.0 mg/kg/injection, schedule: Q01DX009 (ip), vehicle: acetone 98 % of control | dose: 200.0 mg/kg/injection, schedule: Q01DX009 (ip), vehicle: acetone 88 % of control

C=CCNc1nc(C)ncc1C(=O)OCC
inactive: dose: 75.0 mg/kg/injection, schedule: Q04DX003 (ip), vehicle: saline with Tween-80 94 % of control | dose: 150.0 mg/kg/injection, schedule: Q04DX003 (ip), vehicle: saline with Tween-80 92 % of control | dose: 300.0 mg/kg/injection, schedule: Q04DX003 (ip), vehicle: saline with Tween-80 92 % of control

CSc1nc(NC(=O)CCl)cc(=O)[nH]1
inactive: dose: 25.0 mg/kg/injection, schedule: Q01DX009 (ip), vehicle: Klucel (hydroxypropylcellulose) (HPC) 93 % of control and 97 % of control and 89 % of control | [6] 97 % of control and 89 % of control | [7] 90 % of control | [8] 98 % of control | [9] 102 % of control

CCC(Br)Cc1ccccc1 (stereo unspecified)
inactive: dose: 2.0 mg/kg/injection, schedule: Q01DX015 (ip), vehicle: saline 91 % of control | dose: 4.0 mg/kg/injection, schedule: Q01DX015 (ip), vehicle: saline 91 % of control | dose: 8.0 mg/kg/injection, schedule: Q01DX015 (ip), vehicle: saline 91 % of control | dose: 16.0 mg/kg/injection, schedule: Q01DX015 (ip), vehicle: saline 95 % of control

C[C@]12CC[C@H]3[C@@H](CCC4=CC(=O)CC[C@@]43C)[C@@H]1CC[C@@H]2OC(=O)Cc1ccc(N(CCCl)CCCl)cc1
inactive: dose: 100.0 mg/kg/injection, schedule: Q01DX001 (sc), vehicle: steriod suspending solution 94 % of control | dose: 200.0 mg/kg/injection, schedule: Q01DX001 (sc), vehicle: steriod suspending solution 96 % of control | dose: 400.0 mg/kg/injection, schedule: Q01DX001 (sc), vehicle: steriod suspending solution 91 % of control

Cc1[nH]c(=O)[nH]c(=O)c1/C=C/C(=O)NC(CO)CC(C)C (stereo unspecified)
inactive: dose: 12.5 mg/kg/injection, schedule: Q01DX009 (ip), vehicle: saline 98 % of control | dose: 25.0 mg/kg/injection, schedule: Q01DX009 (ip), vehicle: saline 102 % of control and 114 % of control | [17] 98 % of control | [18] 107 % of control and 108 % of control | [11] 101 % of control | dose: 300.0 mg/kg/injection, schedule: Q01DX009 (ip), vehicle: saline 114 % of control

[Si]c1ccccc1
inactive: dose: 100.0 mg/kg/injection, schedule: Q04DX002 (ip), vehicle: saline with Tween-80 102 % of control | dose: 200.0 mg/kg/injection, schedule: Q04DX002 (ip), vehicle: saline with Tween-80 93 % of control | dose: 400.0 mg/kg/injection, schedule: Q04DX002 (ip), vehicle: saline with Tween-80 98 % of control

O=C(Nc1ncn[nH]1)C(F)(F)F
inactive: [1] 103 % of control | [10] 103 % of control | [12] 92 % of control
